From patent publication US20100216886A1, “POLYMORPHS OF N2-(1,1'-BIPHENYL-4-YLCARBONYL)-N1-[2-(4-FLUOROPHENYL)-1,1-DIMETHYLETHYL]-L-ALPHA-GLUTAMINE” (Wyeth, priority 2006, published 2010)
In brackets after ≈: the same amount, converted by molar mass.

What was measured:
[1] = Forced degradation study (solution stability); type: physicochemical; details: 387 μg/mL with 25% acetonitrile in acid, base, peroxide and water under heat and light stress
Description: A forced degradation study was performed to generate potential degradation products and assess stability liabilities.

physchem = experiment: physchem
Description: The pH solubility profile was generated first with Sample D containing polymorph Form A, and then with Sample F containing polymorph Form B, in HCl/NaOH solutions. After 24 hour equilibration, suspensions were centrifuged and the supernatants assayed by HPLC.
The solubility data was analyzed as a function of pH using the Henderson-Hasselbach equation:
Solubility=S0·[10^(PH-pKa)+1],
where S0 is the intrinsic solubility of the free acid.

[2] = Second CACO-2 study, propranolol as reference; type: in vitro ADME; details: human, Caco-2
Excerpt: (§1) The second CACO-2 study gave somewhat different results (Table 12). Because metoprolol interferes with the LC/MS assay, propranolol, which has a permeability that is […] metoprolol, was used as the FDA calibration compound. The apical pH was controlled at 6 and basolateral pH at pH 7. In addition, verapamil was used as a competitive inhibitor of the Pgp (P-glycoprotein) transporter. The ratios to propranolol were 1.00 and 0.77 with and without verapamil. […] The B→A/A→B ratios were low at 0.3 and 0.3, with and without verapamil, respectively, indicating again no efflux […].

CACO-2 [3] = experiment: Second CACO-2 study, propranolol as reference; type: in vitro ADME; details: for Ratio to Propranolol: A → B
Excerpt: as §1

[4] = In situ rat perfusion model, metoprolol as reference; type: in vivo; details: rat
Excerpt: The permeability was 18.2 nm/sec, which is higher than the 14.5 nm/sec value obtained for metoprolol (Table 13).

[5] = Solubility in water and toxicology vehicle (animal formulation); type: physicochemical
Description: (§2) Solubility is enhanced slightly in the 2% Tween/0.5% methylcellulose toxicology vehicle, ranging from […]. 2% Tween may also increase GI membrane permeability.

[6] = Oral bioavailability in rat; details: in vivo, read-out: Oral bioavailability (F %)
Description: as §2
(§3) A prolonged absorption phase was observed together with decreasing bioavailability with increasing dose in both animal species. […] However, the absorption at pharmacological doses seemed reasonably complete albeit with delayed Tmax at lower GI when the drug is more soluble.

[7] = Oral bioavailability in dog; details: in vivo, read-out: Oral bioavailability (F %)
Description: as §2, §3

[8] = Solubility in various solvents at 25° C. and 50° C.; type: physicochemical
[9] = Slurry in water at 50° C. (polymorphic transformation); type: physicochemical; details: slurry in water at 50° C. for 12-24 hr
Description: Powder XRD patterns comparing the starting material to polymorph pseudo Form A are shown in FIG. 34, and DSC thermograms of both batches at 50° C. are shown in FIG. 35.

[10] = First CACO-2 study, metoprolol as reference; details: human; for recovery: Caco-2, pH 7.4, % Recovery, pH 7.4
CACO-2 [11] = experiment: First CACO-2 study, metoprolol as reference; details: for Ratio to Metoprolol: pH 7.4
[12] = Polymorphic conversion study in aqueous media (2% Tween 80, water); type: physicochemical
Excerpt: Polymorphic conversion of Form A to Form B was not observed with Sample D in 2% Tween 80 or water.
Polymorph pseudo Form A was obtained from a scaled up preparation of polymorph Form A (Sample E).
The polymorphic conversion appeared to be slower in water than in the 2% Tween suspension, probably due to the lower solubility in water.
DSC data also supported this observation (FIG. 11).

[13] = Solubility in water and 2% Tw80 of samples used in toxicological formulation assessments; type: physicochemical; details: 2% Tw80
Excerpt: Table 6 summarizes various solid-state properties of samples used in toxicological formulation assessments.

[14] = Dynamic Vapor Sorption (DVS) analysis; type: physicochemical; details: room temperature, 6-hour equilibration period
Excerpt: Sample F was subject to Dynamic Vapor Sorption (DVS) analysis at room temperature. The sample was first analyzed by Karl Fischer (KF) titration containing initial moisture content of 3.7% for the monohydrate form. RH cycling started at 50% relative humidity (RH) to 100% RH and down to 0% RH and then back up to 100% RH. A 3-hour/step equilibration period was found insufficient, so the run was repeated with a 6-hour period, which was still not sufficient.
(§4) As a result, an equilibrium moisture study using desiccators containing saturated salt solutions for humidity control was performed. Sample F was incubated at 0%, 15%, 31%, 66%, 87%, and 100% RH in room temperature for up to 20 days. Samples were periodically assayed by KF titration to give the kinetic profiles. XRD analysis was performed at the end of 20 days. The data is summarized in Table 8 with kinetic and equilibrium data plotted in FIGS. 18 and 19.

[15] = Equilibrium moisture study in desiccators with saturated salt solutions (KF, XRD); type: physicochemical; details: for Moisture (%) 1-day / Moisture (%) 3-day / Moisture (%) 7-day / Moisture (%) 20-day / XRD Polymorph / Moisture (%) 4-day: room temperature; for XRD Polymorph: end of 20 days
Description: as §4, with “Sample F was incubated at 0%, 15%, 31%, 66%, 87%, and 100% RH in room temperature for up to 20 days.” left out

Solid state stability = type: physicochemical
Description: Sample F containing polymorph Form B was further investigated at 40° C./75% RH using open and closed vials for 3 months. […] Therefore, the monohydrate needs to be stored in hermetically sealed containers in order to prevent conversion to the sesquihydrate.

CC(C)(Cc1ccc(F)cc1)NC(=O)[C@H](CCC(=O)O)NC(=O)c1ccc(-c2ccccc2)cc1 [Compound (I), N^2-(1,1′-biphenyl-4-ylcarbonyl)-N^1-[2-(4-fluorophenyl)-1,1-dimethylethyl]-L-α-glutamine]
Forced degradation result [1]: subject to acid and peroxide degradation
pKa (physchem): 5.3
solubility at 24 h (physchem; aqueous buffer, thermodynamic from solid, S0 (intrinsic solubility of the free acid)): 4.5 µg/mL (≈ 0.00944 mM)
Papp A→B ([2]; A → B, apical pH 6, basolateral pH 7, without verapamil): 62.4 ×10⁻⁶ cm/s
Papp B→A ([2]; B → A, apical pH 6, basolateral pH 7, without verapamil): 18.5 ×10⁻⁶ cm/s
efflux ratio ([2]; without verapamil, read-out: Ratio of B→A/A→B): 0.3
Ratio to Propranolol (CACO-2 [3]; plus Verapamil): 0.77
Ratio to Propranolol (CACO-2 [3]; without verapamil): 1.00
mean ratio to propranolol (CACO-2 [3]; average of values with and without verapamil): 0.88
Ratio of B→A/A→B (CACO-2 [3]; plus Verapamil): 0.3
Permeability classification (CACO-2 [3]; versus propranolol): low permeability
Ratio of B→A/A→B (CACO-2 [3]; without verapamil): 0.3
Papp at 20 μg/mL [4]: 1.82 ×10⁻⁶ cm/s
Permeability classification [4]: high permeability
Peff × 10^−1 (μm/sec) ([4]; in vivo, 20 μg/mL): 1.82 × 10^−1 μm/sec
Ratio to Metoprolol ([4]; in vivo, 20 μg/mL): 1.26
solubility ([5]; 2% Tween/0.5% methylcellulose toxicology vehicle, aqueous with cosolvent or surfactant or cyclodextrin, read-out: Solubility in toxicology vehicle): 220 to 470 µg/mL (≈ 0.462 to 0.986 mM)
resulting pH ([5]; water): around 5.5
solubility ([5]; water, pH 5.5, water, read-out: solubility in water): < 100 µg/mL
bioavailability ([6]; 100 mg/kg): ~100%
bioavailability ([6]; Tox suspension, 25 mg/kg): 29%
bioavailability ([7]; Tox suspension, 25 mg/kg): ~100%
bioavailability ([7]; capsule containing neat drug): 65%
solubility ([8]; Water, 25° C.): 1600 µg/mL (≈ 3.36 mM)
solubility ([8]; Water, 50° C.): 1800 µg/mL (≈ 3.78 mM)
solubility ([8]; organic solvent or mixture, Acetonitrile, 25° C.): 43000 µg/mL (≈ 90.2 mM)
solubility ([8]; organic solvent or mixture, Acetonitrile, 50° C.): > 133000 µg/mL
solubility ([8]; organic solvent or mixture, EtAc (ethyl acetate), 25° C.): > 109000 µg/mL
solubility ([8]; organic solvent or mixture, Ethanol, 25° C.): > 137000 µg/mL
solubility ([8]; organic solvent or mixture, Heptane, 25° C.): 700 µg/mL (≈ 1.47 mM)
solubility ([8]; organic solvent or mixture, Isopropyl acetate (IPAc), 25° C.): 76100 µg/mL (≈ 160 mM)
solubility ([8]; organic solvent or mixture, Isopropyl acetate (IPAc), 50° C.): > 123000 µg/mL
solubility ([8]; organic solvent or mixture, Isopropyl alcohol (IPA), 25° C.): > 122000 µg/mL
solubility ([8]; organic solvent or mixture, Toluene, 25° C.): 4300 µg/mL (≈ 9.02 mM)
solubility ([8]; organic solvent or mixture, Toluene, 50° C.): 15600 µg/mL (≈ 32.7 mM)
Change of powder XRD pattern or melting point / polymorphic transformation [9]: not observed
Papp A→B ([10]; Caco-2, pH 7.4): 14.9 ×10⁻⁶ cm/s
Papp B→A ([10]; Caco-2, pH 7.4): 37.4 ×10⁻⁶ cm/s
efflux ratio ([10]; Caco-2, pH 7.4): 2.36
recovery ([10]; A → B): 100%
recovery ([10]; B → A): 156%
Ratio to Metoprolol (CACO-2 [11]; A → B): 0.25
Ratio to Metoprolol (CACO-2 [11]; B → A): 0.59
Permeability classification (CACO-2 [11]; pH 7.4, versus metoprolol): low permeability

CC(C)(Cc1ccc(F)cc1)NC(=O)[C@H](CCC(=O)O)NC(=O)c1ccc(-c2ccccc2)cc1 [Sample E, N^2-(1,1′-biphenyl-4-ylcarbonyl)-N^1-[2-(4-fluorophenyl)-1,1-dimethylethyl]-L-α-glutamine]
Polymorphic conversion / Polymorph Form after stirring ([12]; suspension 100 mg/mL in 2% Tween 80, ambient conditions, about 0.5 hr): transformation of pseudo Form A to Form B
Polymorphic conversion / Polymorph Form after stirring ([12]; suspension 100 mg/mL in water, overnight (~18 hr), ambient conditions): transformation of pseudo Form A to Form B
Solubility, 2% Tw80 [13]: 330 µg/mL (≈ 0.692 mM)
pH of 2% Tw80 solubility sample [13]: 5.6
Change of powder XRD pattern or melting point / polymorphic transformation [9]: transformed to a lower melting point polymorph form

CC(C)(Cc1ccc(F)cc1)NC(=O)[C@H](CCC(=O)O)NC(=O)c1ccc(-c2ccccc2)cc1 [Form B, N^2-(1,1′-biphenyl-4-ylcarbonyl)-N^1-[2-(4-fluorophenyl)-1,1-dimethylethyl]-L-α-glutamine]
RH range in which the form is stable (DVS) [14]: 0-50 % RH
Moisture (%) 1-day ([15]; 0% RH): 3.48%
Moisture (%) 3-day ([15]; 0% RH): 3.55%
Moisture (%) 7-day ([15]; 0% RH): 3.57%
Moisture (%) 20-day ([15]; 0% RH): 2.78%
XRD Polymorph ([15]; 0% RH): Pattern B, Form B
Moisture (%) 1-day ([15]; 15% RH): 3.97%
Moisture (%) 4-day ([15]; 15% RH): 3.99%
Moisture (%) 7-day ([15]; 15% RH): 3.74%
Moisture (%) 20-day ([15]; 15% RH): 3.79%
XRD Polymorph ([15]; 15% RH): Pattern B, Form B
Moisture (%) 1-day ([15]; 31% RH): 3.61%
Moisture (%) 4-day ([15]; 31% RH): 5.01%
Moisture (%) 7-day ([15]; 31% RH): 3.93%
Moisture (%) 20-day ([15]; 31% RH): 3.79%
XRD Polymorph ([15]; 31% RH): Pattern B, Form B
Moisture (%) 1-day ([15]; 47% RH): 3.81%
Moisture (%) 3-day ([15]; 47% RH): 3.73%
Moisture (%) 7-day ([15]; 47% RH): 4.00%
Moisture (%) 20-day ([15]; 47% RH): 4.19%
XRD Polymorph ([15]; 47% RH): Pattern B, Form B
Moisture (%) 1-day ([15]; 66% RH): 5.12%
Moisture (%) 4-day ([15]; 66% RH): 5.28%
Moisture (%) 7-day ([15]; 66% RH): 5.34%
Moisture (%) 20-day ([15]; 66% RH): 5.1%
XRD Polymorph ([15]; 66% RH): Pattern C, Form C
Moisture (%) 1-day ([15]; 84% RH): 5.55%
Moisture (%) 3-day ([15]; 84% RH): 5.43%
Moisture (%) 7-day ([15]; 84% RH): 5.55%
Moisture (%) 20-day ([15]; 84% RH): 5.71%
XRD Polymorph ([15]; 84% RH): Pattern C, Form C
Moisture (%) 1-day ([15]; 100% RH): 5.55%
Moisture (%) 4-day ([15]; 100% RH): 8.08%
Moisture (%) 7-day ([15]; 100% RH): 6.14%
Moisture (%) 20-day ([15]; 100% RH): 6.22%
XRD Polymorph ([15]; 100% RH): Pattern C, Form C
RH range at which the form is present by XRD ([15]; Sample F incubated at room temperature, 20 days, listed as monohydrate): 0-47 % RH
Moisture (%) T = 0 ([15]; initial, KF titration): 3.82%
HPLC Impurity (%) (Solid state stability; 40 C./75% RH Closed, 4 wk): 0.34%
KF (%) (Solid state stability; 40 C./75% RH Closed, 4 wk): 5.35%
XRD Polymorph (Solid state stability; 40 C./75% RH Closed, 4 wk): Form C Pattern C
HPLC Impurity (%) (Solid state stability; 40 C./75% RH Closed, 8 wk): 0.41%
KF (%) (Solid state stability; 40 C./75% RH Closed, 8 wk): 5.79%
XRD Polymorph (Solid state stability; 40 C./75% RH Closed, 8 wk): Form C Pattern C
HPLC Impurity (%) (Solid state stability; 40 C./75% RH Open, 4 wk): 0.36%
KF (%) (Solid state stability; 40 C./75% RH Open, 4 wk): 5.34%
XRD Polymorph (Solid state stability; 40 C./75% RH Open, 4 wk): Form C Pattern C
HPLC Impurity (%) (Solid state stability; 40 C./75% RH Open, 8 wk): 0.49%
KF (%) (Solid state stability; 40 C./75% RH Open, 8 wk): 5.53%
XRD Polymorph (Solid state stability; 40 C./75% RH Open, 8 wk): Form C Pattern C
Duration of sufficient heat stability (Solid state stability; 40° C./75% RH): at least 3 months
HPLC Impurity (%) (Solid state stability; Initial, time 0): 0.30%
KF (%) (Solid state stability; Initial, time 0): 3.82%
XRD Polymorph (Solid state stability; Initial, time 0): Form B Pattern B
